Ten compounds from patent US4361573A, “α,α-Diaryl-β-(tert-amino)-propanols and diuretic pharmaceutical compositions containing them” (Temmler AG, priority 1974, dated 1982) can be followed below.

As usually defined, the LD50 is the dose at which mortality reaches 50%.

A short description of data set [1]: saluretic efficiency test in rats: elimination of water, sodium, chloride and potassium in 6 h urine after oral dosing. It is filed as in vivo. The settings on record: for change in vivo at 40 µmol/kg / change in vivo at 80 µmol/kg: Rattus norvegicus; for change in vivo at 40 µmol/kg / change in vivo at 80 µmol/kg / Quotient Na/K: rats, oral. Here is the method: In order to test the saluretic efficiency of the compounds of the invention rats having a weight of 150 to 200 g were used. The animals were kept without food, but not without drinking water, for 15 hours before the beginning of the test. The test substances were administered to groups of four rats, of substantially equal weight, with a rigid stomach probe in a 1% methyl cellulose slime. The dose required per 100 g animal (unit dosage in μmol/kg body weight) was contained in one ml. Following the administration of the substance the rats were given 5 ml 0.9% sodium chloride solution per 100 g body weight p.o. and placed in a diuresis funnel after manually emptying the bladder. Urine was collected for 6 hours in an airconditioned chamber at 24°±1° C. and a relative air humidity of 50±5%. The diuretic effect of a particular dose was tested on at least two, but more frequently however on four to eight groups of rats. Two sodium chloride controls were also used for each test day.
At the end of the collecting periods the volumes of urine discharged per group were noted and the pH value and also the content of sodium, potassium (flame-photometrically) and chloride (measured argentometrically with the determination of the end point potentiometrically) were determined.
From the analysis results the quantities of Na^+, K^+ and Cl^- eliminated were calculated in […] body weight, and the values thus obtained compared with those of the control animals.
Means values and twice the standard deviation were calculated from the data for the sodium chloride controls, in order to determine the normal range. Then, for the values found with the test substances, the percentage variations from the average in respect of these parameters were calculated and tabulated. In this connection, with the results given in Table 1, the upper limit of the normal range, which is defined as the mean value plus twice the standard deviation, was selected as the reference quantity for the variations. In this way relevant hyper-eliminations could clearly be recognised.
In Table 2, the mean percentage variations in potassium elimination after administration of the compounds in accordance with the invention are compared with the mean value of the potassium elimination in the case of the sodium chloride controls. At the same time the […] ratio is given which provides conclusive evidence of the effective saluretic property. The larger this quotient is, then the more sodium than potassium is eliminated in proportion.

The nature of data set [2]: comparison of toxicity in mice: oral LD50 by the Lichtfiel & Wilcoxon method. To be noted: mouse, in vivo, observation period 7 days, 95% confidence limit in brackets, read-out: LD50. The data set is classed as in vivo. The source says: In Table 3 the mean lethal doses for mice, administered orally (LD50 determination by the […] & WILCOXON method - J.Pharmacol. Exp. Ther. 96,98 (1949)) are compared.

Setting [3] is: 6 h, 40 μmol/kg body wt., relative to mean K+ elimination of the controls, read-out: Mean percentage variation in the elimination of potassium.
[4] abbreviates: 6 h, 80 μmol/kg body wt., relative to mean K+ elimination of the controls, read-out: Mean percentage variation in the elimination of potassium.
[5] abbreviates: 40 μmol/kg body wt., deviation from control mean plus twice the standard deviation, 6 h urine, read-out: Mean percentage variation in the elimination of Chloride.
[6] abbreviates: 40 μmol/kg body wt., deviation from control mean plus twice the standard deviation, 6 h urine, read-out: Mean percentage variation in the elimination of H2O.
Setting [7] is: 40 μmol/kg body wt., deviation from control mean plus twice the standard deviation, 6 h urine, read-out: Mean percentage variation in the elimination of Sodium.
[8] abbreviates: 80 μmol/kg body wt., deviation from control mean plus twice the standard deviation, 6 h urine, read-out: Mean percentage variation in the elimination of Chloride.
The mark [9] stands for this setting: 80 μmol/kg body wt., deviation from control mean plus twice the standard deviation, 6 h urine, read-out: Mean percentage variation in the elimination of H2O.
Where [10] appears, read: 80 μmol/kg body wt., deviation from control mean plus twice the standard deviation, 6 h urine, read-out: Mean percentage variation in the elimination of Sodium.
The mark [11] stands for this setting: dose of 10 mol/kg body weight, average.

Each structure is given as a SMILES string. Like-named read-outs stand apart in the source and are kept apart here. Bounds are passed on as bounds.

For the compound `COc1ccc(C)cc1C(O)(c1cc(C(C)C)c(OCc2ccccc2)c(C(C)C)c1)C(C)N1CCCCC1` (centres unmarked) [T 2481, 1-(2'-methoxy-5'-methylphenyl)-1-(4"-benzyloxy-3",5"-diisopropylphenyl)-2-piperidino-propan-1-ol], the change in vivo at 40 µmol/kg in data set [1] (setting [3]) is -4.1%; in data set [1] (setting [5]) it was -7.5%; in data set [1] (setting [6]), 3%; in data set [1] (setting [7]), -2.4%. Moreover, the change in vivo at 80 µmol/kg in data set [1] (setting [4]) was 16.3%; in data set [1] (setting [8]), 20%; in data set [1] (setting [9]), 34.1%; in data set [1] (setting [10]), 43.8%. Moreover, the “Quotient Na/K” value is 6.04 in data set [1] (40 μmol/kg body wt.) and 7.34 in data set [1] (80 μmol/kg body wt.). Also, in data set [2], the LD50 is 3780 mg/kg.
As to `COc1ccc(C(O)(c2cc(C(C)C)c(OC)c(C(C)C)c2)C(C)N2CCCCC2)cc1OC` (centres unmarked) [T 1882, 1-(4'-methoxy-3',5'-diisopropylphenyl)-1-(3",4"-dimethoxyphenyl)-2-piperidino-propan-1-ol], the change in vivo at 40 µmol/kg was 13.3% in data set [1] (setting [3]), 6.3% in data set [1] (setting [5]), 17.7% in data set [1] (setting [6]) and 24.4% in data set [1] (setting [7]). Besides, the change in vivo at 80 µmol/kg is -12.2% in data set [1] (setting [4]), -4.4% in data set [1] (setting [8]), 7.5% in data set [1] (setting [9]) and 9.5% in data set [1] (setting [10]). The “Quotient Na/K” value in data set [1] (40 μmol/kg body wt.) came to 6.52; in data set [1] (80 μmol/kg body wt.), 7.41. Moreover, the 50% lethal dose (LD50) in data set [2] was determined as 3400 mg/kg.
For `COc1c(C(C)C)cc(Cl)c(C)c1C(O)(c1ccccc1)C(C)N1CCCC1` (centres unmarked) [T 2350, 1-(3'-chloro-6'-methoxy-2'-methyl-5'-isopropylphenyl)-1-phenyl-2-pyrriolidino-propan-1-ol], the change in vivo at 40 µmol/kg in data set [1] (setting [3]) was -2%; in data set [1] (setting [5]), 2.6%; in data set [1] (setting [6]), 24.1%; in data set [1] (setting [7]), 15.5%. Further, the change in vivo at 80 µmol/kg in data set [1] (setting [4]) was found to be 25.5%; in data set [1] (setting [8]), 21.2%; in data set [1] (setting [9]) it was 49.8%; in data set [1] (setting [10]), 40.5%. In addition, the “Quotient Na/K” value in data set [1] (40 μmol/kg body wt.) amounted to 7.00; in data set [1] (80 μmol/kg body wt.), 6.65. For the same compound, the LD50 in data set [2] was over 4500 mg/kg.
Regarding `COc1ccc(C(O)(c2cc(C(C)C)c(OC)c(C(C)C)c2)C(C)N2CCCCC2)cc1` (centres unmarked) [T 2237, 1-(4'-methoxy-3',5'-diisopropylphenyl)-1-(4"-methoxyphenyl)-2-piperidino-propan-1-ol], the change in vivo at 40 µmol/kg was found to be 13.3% in data set [1] (setting [3]), 24.3% in data set [1] (setting [5]), 40.8% in data set [1] (setting [6]) and 32.1% in data set [1] (setting [7]). The change in vivo at 80 µmol/kg was 19.4% in data set [1] (setting [4]), 57.1% in data set [1] (setting [8]), 67.9% in data set [1] (setting [9]) and 59.8% in data set [1] (setting [10]). In addition, the “Quotient Na/K” value was found to be 6.93 in data set [1] (40 μmol/kg body wt.) and 7.95 in data set [1] (80 μmol/kg body wt.). Also, the LD50 in data set [2] was over 6400 mg/kg.
For the compound `COc1c(C)c(C)c(C(O)(c2ccccc2)C(C)N2CCCCC2)c(C)c1C` (centres unmarked) [T 2152, 1-(4'-methoxy-2',3',5',6'-tetramethylphenyl)-1-phenyl-2-piperidino-propane-1-ol], the change in vivo at 40 µmol/kg in data set [1] (setting [3]) amounted to 9.2%; in data set [1] (setting [5]) it was 11.6%; in data set [1] (setting [6]), 22.9%; in data set [1] (setting [7]), 22.7%. For the same compound, the change in vivo at 80 µmol/kg in data set [1] (setting [4]) was 9.2%; in data set [1] (setting [8]), 5.6%; in data set [1] (setting [9]), 22.6%; in data set [1] (setting [10]), 20.4%. The “Quotient Na/K” value in data set [1] (40 μmol/kg body wt.) was 6.67; in data set [1] (80 μmol/kg body wt.), 6.55.
Consider `COc1c(C)cc(C(O)(c2cc(Cl)cc(C)c2OC)C(C)N(C)C(C)(C)C)cc1C` (centres unmarked) [T 2493, 1-(3'-chloro-6'-methoxy-5'-methylphenyl)-1-(4"-methoxy-3",5"-dimethylphenyl)-2-(N-methyl-tertiary-butylamino)-propan-1-ol], for which the change in vivo at 40 µmol/kg amounted to 35.7% in data set [1] (setting [3]), 41% in data set [1] (setting [5]), 59.2% in data set [1] (setting [6]) and 62.7% in data set [1] (setting [7]). Besides, the change in vivo at 80 µmol/kg in data set [1] (setting [4]) was 34.7%; in data set [1] (setting [8]), 41.5%; in data set [1] (setting [9]) it was 64.4%; in data set [1] (setting [10]), 76.8%. Also, the “Quotient Na/K” value in data set [1] (40 μmol/kg body wt.) is 7.74; in data set [1] (80 μmol/kg body wt.), 7.88. Further, the LD50 in data set [2] stood at 3610 mg/kg.
As for `CCOc1ccc(C(O)(c2cc(C(C)C)c(OCC)c(C(C)C)c2)C(C)N2CCCCC2)cc1` (centres unmarked) [T 2453, 1-(4'-ethoxy-3',5'-diisopropylphenyl)-1-(4"-ethoxyphenyl)-2-piperidino-propan-1-ol], the change in vivo at 40 µmol/kg is -2% in data set [1] (setting [3]), 6.9% in data set [1] (setting [5]), 13.4% in data set [1] (setting [6]) and 7.6% in data set [1] (setting [7]). Besides, the change in vivo at 80 µmol/kg turned out to be 31.2% in data set [1] (setting [8]), 51.7% in data set [1] (setting [9]) and 62.2% in data set [1] (setting [10]). In addition, the “Quotient Na/K” value was 6.52 in data set [1] (40 μmol/kg body wt.) and 9.63 in data set [1] (80 μmol/kg body wt.). Also, the LD50 in data set [2] came out at 700 mg/kg.
`Nc1nc(N)c2nc(-c3ccccc3)c(N)nc2n1` [2.4.7-triamino-6-phenyl-pteridine, reference compound]: the change in vivo at 40 µmol/kg in data set [1] (setting [3]) was -43.9%; in data set [1] (setting [5]), -11.7%; in data set [1] (setting [6]), -1%; in data set [1] (setting [7]) it was -4%. Further, the change in vivo at 80 µmol/kg was -55.1% in data set [1] (setting [4]), -11.7% in data set [1] (setting [8]), -2% in data set [1] (setting [9]) and -0.2% in data set [1] (setting [10]). Moreover, the “Quotient Na/K” value in data set [1] (40 μmol/kg body wt.) was found to be 10.16; in data set [1] (80 μmol/kg body wt.), 13.20.
In the case of `NS(=O)(=O)c1cc2c(cc1Cl)NCNS2(=O)=O` [6-chloro-3.4.-dihydro-7-sulphamoyl-2H-1.2.4.-benzothiadiazine-1.1.-dioxide, reference compound], the “maximum hyper-elimination, chloride” value in data set [1] (dose of 10 μmol/kg body weight, average) was found to be 17.3%. Besides, in data set [1] (setting [11]), the “maximum hyper-elimination, sodium” value turned out to be 29.6% and the “maximum hyper-elimination, water” value is 19.9%. In data set [1] (maximum effective dose, 10 μmol/kg body wt.), the “Na/K ratio of the quantities eliminated” value was 4.86. Moreover, the hyper-elimination of potassium in data set [1] (maximum effective dose, 10 mol/kg body wt.) worked out at 58.3%.
In the case of `COc1ccc(C(O)(c2cc(C(C)(C)C)cc(C)c2OC)C(C)N2CCCCC2)c(OC)c1` (centres unmarked) [T 2455, 1-(2'-methoxy-3'-methyl-5'-tertiary-butylphenyl)-1-(2",4"-dimethoxyphenyl)-2-piperidino-propan-1-ol], the change in vivo at 40 µmol/kg in data set [1] (setting [3]) turned out to be 13.3%; in data set [1] (setting [5]) it was 21.4%; in data set [1] (setting [6]), 39.8%; in data set [1] (setting [7]) it was 31.3%. Further, the change in vivo at 80 µmol/kg is -23.5% in data set [1] (setting [4]), 34.8% in data set [1] (setting [8]), 62.4% in data set [1] (setting [9]) and 55.8% in data set [1] (setting [10]). In addition, the “Quotient Na/K” value was found to be 6.88 in data set [1] (40 μmol/kg body wt.) and 12.93 in data set [1] (80 μmol/kg body wt.). The LD50 in data set [2] was 4550 mg/kg.
